{"source": "paper PMC12204359", "about": "“Mechanistic Design of Cell-Penetrating Disruptors for a Phospho-Dependent Interaction” (Research Square, 2025)", "key": {"[1]": {"biological_target": "T1, biotinylated Avi-tagged ankle region of clathrin (aa 358–574) (Homo sapiens, UniProt Q00610)", "T1 construct": "The biotinylated Avi-tagged ankle region of clathrin (aa 358–574) was immobilised; made in house", "T1 sequence (Q00610 358-574 limits assumed)": "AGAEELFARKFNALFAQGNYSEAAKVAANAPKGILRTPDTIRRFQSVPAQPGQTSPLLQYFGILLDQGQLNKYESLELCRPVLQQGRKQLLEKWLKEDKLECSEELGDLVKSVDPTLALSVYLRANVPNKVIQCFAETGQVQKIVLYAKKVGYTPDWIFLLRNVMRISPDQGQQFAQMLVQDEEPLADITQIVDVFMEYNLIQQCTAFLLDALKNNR", "assay": "SPR binding kinetics", "settings": "Biacore 1K+, average ± SD of duplicates; for kon: CHC aa 358–574 on SA chip, 60 s injection, read-out: ka (SPR)", "procedure": "The SPR assays were performed using a Biacore 1K+ instrument (Cytiva Life Sciences). The biotinylated Avi-tagged ankle region of clathrin (aa 358–574) was immobilised on the surface of a Streptavidin SA chip (Cytiva Life Sciences) to the density of 150 RU. The increasing concentrations of peptide analytes were diluted in the running buffer (20 mM HEPES pH 7.5, 150 mM NaCl, 5 mM DTT, 0.05% Tween-20) and injected at a flow rate of 30 μL/min). […] Each concentration was injected at 30 μL/min for 60 s. […] The Biacore evaluation software was used to calculate equilibrium KD values as well as ka and kd constants using 1:1 steady-state affinity model implemented into the BIAevaluation 3.0 software."}, "[2]": {"biological_target": "T2, K507A-CHC^ankle (Homo sapiens, UniProt Q00610, K507A)", "T2 construct": "we used the minimal ankle region of CHC (CHC^ankle, aa 358–574); GST (TEV-cleavable); made in house", "T2 sequence (Q00610 358-574 K507A)": "T1 sequence (Q00610 358-574 limits assumed) with K150A", "assay": "Fluorescence polarisation direct binding assay, K507A-CHC ankle", "settings": "direct binding FP, FAM labelled peptides; CHC with K507A substitution; mean of three experiments ± SD; read-out: KD, stapled and control peptides, CHC K507A", "source_text": "CHC constructs for binding studies were produced during previous work by cloning the respective CHC coding sequence of Q00610 (CLH1_HUMAN) aa 1–574 and 358–574, respectively) into a modified pGEX vector containing a TEV-cleavable GST tag[26]. Point mutations K506A and K507A were introduced by site-directed mutagenesis. GB1-TACC3 is the small protein GB1[47] fused to a short, disordered peptide sequence from human TACC3 (Q9Y6A5, aa 545–573). This hybrid sequence was cloned into a pETM6T1 vector which contains a TEV protease-cleavable N-terminal His-NusA tag.\n(§1) Binding affinity of CHC and TACC3 peptides was calculated based on fluorescence polarization assays performed as reported previously, using linear and stapled FAM-TACC3 peptides corresponding to aa 549–570 of human TACC3 protein. Linear peptides were purchased from PPR (Fareham, UK); Alta Bioscience (Redditch, UK); Biomatik Corporation (Ontario, Canada). Stock solutions of peptides were 10 mM in DMSO. Binding assays were performed in triplicate in the binding buffer 20 mM HEPES pH 7.5, 150 mM NaCl, 5 mM DTT, 0.05% Tween-20. Data analysis was performed using a one-site specific binding model in Prism (GraphPad software, v10.1.0)."}, "[3]": {"biological_target": "T3, CHC^ankle (clathrin heavy chain aa 358–574) (Homo sapiens, UniProt Q00610)", "T3 construct": "we used the minimal ankle region of CHC (CHC^ankle, aa 358–574); GST (TEV-cleavable); made in house", "T3 sequence (Q00610 358-574)": "T1 sequence (Q00610 358-574 limits assumed)", "assay": "Fluorescence polarisation direct binding assay, CHC ankle WT", "procedure": "as §1"}, "[4]": {"tested_on": "HeLa cells", "settings": "live HeLa cells, SiR-tubulin, 5 μM peptide, 4 h pre-incubation, imaged 10 h every 5 min; 246–297 mitotic events over 3 imaging sessions", "protocol": "HeLa, MDA-MB-468 and MDA-MB-231 cells were plated in a 35 mm imaging dish (Ibidi) in complete growth medium. Prior to imaging, the DMEM or RPMI growth medium was replaced with Optimem medium (Gibco) supplemented with 10% FBS. Added to the medium was SiR-tubulin (Spirochrome) at 30 nM concentration, SPY555-DNA at 1:18000 dilution; both live-cell imaging probes were used at lower than recommended concentrations to avoid possible effects on mitosis. […] The Lattice Lightsheet 7 microscope was fitted with a 10x/0.4NA water immersion illumination lens, a 48x/1.0NA detection lens and a PCO.edge 4.2 sCMOS camera. Each field of view of approximately 500 μm × 297 μm × 33 μm was imaged at 0.2 μm lightsheet interval with the 640 nm channel (15 ms exposure, 15% laser power) and 561 nm channel (15 ms exposure, 10% laser power) over a 10 h period with scans taken every 5 min. To create movies and frame sequences the cell were imaged every 2.5 min for 5 h. Results were processed using Zeiss LLS software and Fiji (v.2.9.0)."}, "[5]": {"tested_on": "HeLa cells", "assay": "Confocal microscopy of fixed HeLa cells (peptide localisation, endogenous TACC3 and CHC on mitotic spindle)", "type": "cell-based", "procedure": "HeLa cells grown on glass coverslips in complete growth medium and treated with 2.5, 5 and 10 μM FAM-peptides for 5 h. Cells were washed with PBS and fixed with PTEMF (20 mM PIPES, pH 6.8, 10 mM EGTA, 1 mM MgCl2, 0.2% Triton X-100 and 4% paraformaldehyde) for 10 min and permeabilized at room temperature in 0.5% Triton-X100 in PBS for 10 min. Cells were blocked in 3% BSA in PBS for 1 h and incubated overnight with primary antibodies diluted in 3% BSA/PBS buffer followed by 1 h incubation with secondary antibodies. Primary antibodies were as follows: mouse anti-CHC (X22; GTX22731; 1:250), rabbit anti-TACC3 (ab134154, Abcam; 1:500). Secondary antibodies were anti-mouse IgG Atto 594 (1:250, 76085, Merck) and anti-rabbit IgG Atto 647N antibody (1:250, 40839, Merck). Coverslips were mounted with ProLong Gold antifade reagent with DAPI (Invitrogen). Peptides were imaged using their 6-FAM fluorescent tag with a 488 nm argon laser. Imaging was performed on a Zeiss LSM880 upright confocal microscope using a 40x/1.4 NA oil objective. Z-stacks comprising of 9–13 × 1 μm sections were acquired. Images were captured using identical settings. The region of interest (~0.6 μm^2) was quantified in three different locations over the spindle, cytoplasm and in the non-cell region of background. Images were analysed using Fiji (v.2.9.0)."}}, "note": "Where a chain is given by its changes, count along the chain named. Positions of bridges follow the written chain, without caps; N, C: chain ends. Non-standard residues stand in square brackets, D forms with d. Residues, ends and D or L forms follow the SMILES beside them. *: point of attachment. 5FAM = O=C1OC2(c3ccc(O)cc3Oc3cc(O)ccc32)c2ccc(C(=O)*)cc21; 6FAM = O=C1OC2(c3ccc(O)cc3Oc3cc(O)ccc32)c2cc(C(=O)*)ccc21; S5 = C=CCCC[C@](C)(N)C(=O)O", "data": [{"smiles": "CC(C)C[C@H](NC(=O)[C@H](C)NC(=O)[C@H](CO)NC(=O)[C@H](CCC(=O)O)NC(=O)[C@H](CCCCN)NC(=O)[C@H](Cc1ccccc1)NC(=O)c1ccc2c(c1)C(=O)OC21c2ccc(O)cc2Oc2cc(O)ccc21)C(=O)N[C@@H](CCCNC(=N)N)C(=O)N[C@@H](CCCCN)C(=O)N[C@@]1(C)CCCC=CCCC[C@@](C)(C(=O)N[C@@H](CCCCN)C(=O)N[C@@H](Cc2ccccc2)C(=O)N[C@@H](CC(=O)O)C(=O)N2CCC[C@H]2C(=O)N[C@@H](CC(C)C)C(=O)N[C@@H](CC(C)C)C(=O)N[C@@H](CCCNC(=N)N)C(=O)N[C@@H](CC(=O)O)C(=O)N[C@@H](CO)C(N)=O)NC(=O)[C@H](Cc2ccc(O)cc2)NC(=O)[C@H](CC(C)C)NC(=O)[C@H](CCC(=O)O)NC1=O", "note": "[SP4E] (5FAM-FKESALRK[S5]ELY[S5]KFDPLLRDS-NH2; staple 9-13)", "values": [{"measurement": "Kd", "setting": "[1]; CHC aa 358–574 on SA chip 150 RU, 20 mM HEPES pH 7.5, 150 mM NaCl, 5 mM DTT, 0.05% Tween-20, 30 μL/min", "value": "2.8 ± 0.2", "unit": "µM"}, {"measurement": "kon", "setting": "[1]", "value": 140000, "unit": "M⁻¹ s⁻¹"}, {"measurement": "Kd", "setting": "[2]", "value": "3.7 ± 1", "unit": "µM"}, {"measurement": "Kd", "setting": "[3]; direct binding FP, FAM labelled peptides, CHC WT (385–574), mean of three experiments ± SD, read-out: KD, stapled and control peptides, CHC WT", "value": "34 ± 5", "unit": "µM"}]}, {"smiles": "CC(C)C[C@H](NC(=O)[C@H](C)NC(=O)[C@@H]1CCCN1C(=O)[C@H](CC(=O)O)NC(=O)[C@H](C)NC(=O)[C@H](CCC(=O)O)NC(=O)[C@]1(C)CCCC=CCCC[C@](C)(NC(=O)[C@H](CCCCN)NC(=O)[C@H](CCCNC(=N)N)NC(=O)[C@H](CC(C)C)NC(=O)[C@H](C)NC(=O)[C@H](CO)NC(=O)[C@H](CCC(=O)O)NC(=O)[C@H](CCCCN)NC(=O)c2ccc3c(c2)C2(OC3=O)c3ccc(O)cc3Oc3cc(O)ccc32)C(=O)N[C@@H](CCC(=O)O)C(=O)N[C@@H](CC(C)C)C(=O)N[C@@H](CC(C)C)C(=O)N1)C(=O)N[C@@H](CCCNC(=N)N)C(=O)N[C@@H](CC(=O)O)C(=O)N[C@@H](CO)C(N)=O", "note": "[Neg. control SP TACC3] (6FAM-KESALRK[S5]ELL[S5]EADPALRDS-NH2; staple 8-12)", "values": [{"measurement": "median duration of mitosis from NEBD to anaphase onset", "setting": "[4]", "value": 55, "unit": "min"}]}, {"smiles": "CC(C)C[C@H](NC(=O)[C@H](C)NC(=O)[C@H](CO)NC(=O)[C@H](CCC(=O)O)NC(=O)[C@H](CCCCN)NC(=O)c1ccc2c(c1)C(=O)OC21c2ccc(O)cc2Oc2cc(O)ccc21)C(=O)N[C@@H](CCCNC(=N)N)C(=O)N[C@@H](CCCCN)C(=O)N[C@@]1(C)CCCC=CCCC[C@@](C)(C(=O)N[C@@H](CCC(=O)O)C(=O)N[C@@H](Cc2ccccc2)C(=O)N[C@@H](CC(=O)O)C(=O)N2CCC[C@H]2C(=O)N[C@@H](CC(C)C)C(=O)N[C@@H](Cc2ccccc2)C(=O)N[C@@H](CCCNC(=N)N)C(=O)N[C@@H](CC(=O)O)C(=O)N[C@@H](CO)C(N)=O)NC(=O)[C@H](CC(C)C)NC(=O)[C@H](CC(C)C)NC(=O)[C@H](CCC(=O)O)NC1=O", "note": "[Opt SP TACC3] (5FAM-KESALRK[S5]ELL[S5]EFDPLFRDS-NH2; staple 8-12)", "values": [{"measurement": "colocalisation with endogenous TACC3 on the mitotic spindle", "setting": "[5]; fixed mitotic HeLa cells, FAM-labelled peptides, confocal microscopy", "value": "colocalised with endogenous TACC3 on the mitotic spindle"}, {"measurement": "reduction of endogenous TACC3 levels in the mitotic spindle", "setting": "[5]; metaphase HeLa cells, peptide 2.5, 5 and 10 μM, 5 h, compared to the negative control SP TACC3 peptide", "value": "~ 20%"}, {"measurement": "kon", "setting": "[1]", "value": "1.8e+06", "unit": "M⁻¹ s⁻¹"}, {"measurement": "fold increase in binding affinity for CHC compared to WT / parental TACC3 sequence", "setting": "[3]; compared to the WT (parental) TACC3 peptide", "value": "over a hundred-fold higher affinity"}]}]}
